US6562855B1, “Anaesthetic formulation comprising an NMDA-antagoinst and an alpha-2 adrenergic agonist” (priority 1999, dated 2003)
Entries after “also recorded” stand apart in the source; their conditions may differ.

What was measured:
[1] = 20° C. and normal pressure; cited from earlier work
NMDA receptor = details: 80% xenon; cultured hippocampal neurons; cited from earlier work
Male Sprague-Dawley rats [2] = assay: Loss of righting reflex (sleep-time), hypnotic response to dexmedetomidine; assay type: in vivo, rat; details: for effect of co-administration on development of tolerance to the hypnotic effect of dexmedetomidine: MK-801 100 and 400 μg/kg/hr co-administered with dexmedetomidine, challenge 100 μg/kg i.p., pumps removed 1 day prior to testing (FIG. 2C); for effect of co-administration on induction of tolerance to the hypnotic effect of dexmedetomidine: NO2-arginine 0.4-4 μg/kg/hr with dexmedetomidine 5 μg/kg/hr for 7 days (FIG. 5C)
Description: (§1) The experimental protocol was approved by the Animal Care and Use Committee of the Veterans Affairs Palo Alto Health Care System. Male Sprague-Dawley rats, (B&K, Fremont, Calif.) weighing 250-350 g were used. The rats were stratified to match the distribution of the weights in the groups as closely as possible. All tests were performed between 10 a.m. and 4 p.m. The number of animals for each experiment is listed in the legends.
(§2) Rats were made tolerant to the anesthetic action of an alpha-2 agonist, dexmedetomidine, as described by Reid K et al (ibid). Briefly, rats were administered dexmedetomidine chronically using Alzet® osmotic minipumps (Model 2002 or 1007D, Alza, Palo Alto Calif.), which discharge their contents at a mean pumping rate of 0.48±0.02 μl/h. The pumps were inserted subcutaneously during isoflurane anesthesia in the dorsal thoracic region and loaded to deliver 5 μg/kg/h for 7 days to induce hypnotic tolerance and 10 μg/kg/h for 14 days to induce analgesic tolerance. […] When MK-801 or Nω-nitro-L-arginine (NO2-arginine) was co-administered with dexmedetomidine the MK-801 was included in the same pump. […] For the MK-801 and Nω-nitro-L-arginine (NO2-arginine) hypnotic experiments the pumps were removed one day prior to behavioral testing. In all other experiments the pumps were not removed prior to testing.
Hypnotic response to dexmedetomidine, was defined by the loss of the rat's righting reflex (LORR), and its duration was measured in minutes and referred to as sleep-time. The duration of the LORR was assessed as the time from the rat's inability to right itself when placed on its back until the time that it spontaneously reverted, completely, to the prone position. The hypnotic response test was performed between 10 a.m. and 6 p.m. as described in Reid et al, 1994.
(§3) The NOS inhibitor Nω-nitro-L-arginine (NO2-arginine) (Sigma) and the NMDA antagonists MK-801 (RBI) and ketamine (Sigma) were diluted in normal saline and acutely administered intraperitoneally or administered chronically by means of Alzet® osmotic minipumps (Model 2002 or 1007D, Alza, Palo Alto Calif.). These compounds were co-administered with dexmedetomidine by including both drugs in one pump.
(§4) LORR and tail flick data was analyzed using the analysis of variance (ANOVA) followed by post hoc Bonferroni tests or Dunnett's multiple comparison test or t-test where appropriate.

Male Sprague-Dawley rats [3] = assay: Tail flick response to a noxious thermal stimulus (analgesic action of dexmedetomidine); assay type: in vivo, rat; details: for effect of acute administration on the analgesic action of dexmedetomidine: tail flick 40 min later
Description: as §1, §2
Nociceptive response was assessed by the tail flick response to a noxious thermal stimulus 40 minutes after the administration of the dexmedetomidine challenge dose. A high intensity light beam focused on the tail and the time for the rat to move its tail out of the light was recorded as tail flick latency. This method has been described previously in the literature (Guo T Z et al, ibid). The latencies from three sites on the tail were averaged. A cut-off time of 10 sec was predetermined to prevent tissue damage. Baseline measurements consist of a set of three tail flick determinations at 2 min intervals.
as §3, §4

Male Sprague-Dawley rats [4] = details: previously demonstrated (Guo T Z et al); cited from earlier work
[5] = chronic exposure to dexmedetomidine for 14 days (10 μg/kg/h) (FIG. 1B)

[Xe] [xenon]
concentration of xenon dissolved or dispersed in lipid emulsion [1]: 0.2 to 10 ml per ml of emulsion | reduction of NMDA-activated currents (NMDA receptor): up to 60%

C[C@]12N[C@H](Cc3ccccc31)c1ccccc12 [MK-801]
effect on dexmedetomidine-induced sleep time (Male Sprague-Dawley rats [2]; MK-801 50 μg/kg acute): has no effect on dexmedetomidine-induced sleep time | effect of acute administration on dexmedetomidine-induced sleep time (Male Sprague-Dawley rats [2]; MK-801 10-200 μg/kg, naïve animals, dexmedetomidine 100 μg/kg i.p. (FIG. 2A)): did not affect sleep time | effect of co-administration on development of tolerance to the hypnotic effect of dexmedetomidine (Male Sprague-Dawley rats [2]): blocks tolerance; also recorded: able to prevent the development of tolerance | effect of co-administration on development of tolerance to the hypnotic effect of dexmedetomidine (Male Sprague-Dawley rats [2]; listed as dizolcipine): blocked | effect of acute administration on expression of tolerance to the hypnotic effect of dexmedetomidine (Male Sprague-Dawley rats [2]; MK-801 acute, rats already tolerant (dexmedetomidine 5 μg/kg/h, 7 days) (FIG. 2B)): does not block dexmedetomidine-induced tolerance; also recorded: did not affect the expression of tolerance | effect of acute administration on expression of tolerance to the hypnotic effect of dexmedetomidine (Male Sprague-Dawley rats [2]; MK-801 acute, rats already tolerant (dexmedetomidine 5 μg/kg/h, 7 days) (FIG. 2B), listed as dizolcipine): does not prevent the expression of tolerance | effect of acute low dose on expression of tolerance to the analgesic effect of dexmedetomidine (Male Sprague-Dawley rats [3]; MK-801 50 μg/kg acute, rats tolerant after dexmedetomidine 10 μg/kg/hr for 14 days (FIG. 4B)): does not prevent the expression of tolerance; also recorded: did not reverse the expression of tolerance | effect of higher dose on the analgesic action of dexmedetomidine (Male Sprague-Dawley rats [3]; MK-801 400 μg/kg acute, control animals): antagonized the analgesic action of dexmedetomidine | effect of acute higher dose on tolerance to the analgesic effect of dexmedetomidine (Male Sprague-Dawley rats [3]; MK-801 400 μg/kg acute, tolerant animals): unable to reverse tolerance | effect of acute administration on the analgesic action of dexmedetomidine (Male Sprague-Dawley rats [3]; MK-801 15 min before dexmedetomidine 50 μg/kg, naive rats (FIG. 4A)): suppressed its analgesic action at the two highest doses | effect of co-administration on development of analgesic tolerance to dexmedetomidine (Male Sprague-Dawley rats [3]; MK-801 (0.4 μg/kg/hr as printed; maximum dose tolerated by the rat) with dexmedetomidine 10 μg/kg/hr for 14 days (FIG. 4C)): does not prevent the development of tolerance; also recorded: had no effect on the development of analgesic tolerance | effect of low dose on dexmedetomidine-induced analgesia (Male Sprague-Dawley rats [3]; low dose of MK-801 (50 μg/kg) acute, control animals (FIG. 4B)): did not have any affect on dexmedetomidine-induced analgesia | effect on tail flick latency / dexmedetomidine's analgesic action when administered alone (Male Sprague-Dawley rats [3]; same chronic dose of MK-801 alone (FIG. 4C)): does not affect dexmedetomidine's analgesic action; also recorded: had no effect on tail flick latency

N=C(NCCC[C@H](N)C(=O)O)N[N+](=O)[O-] [NO2-arginine, Nω-nitro-L-arginine]
effect of co-administration on induction of tolerance to the hypnotic effect of dexmedetomidine (Male Sprague-Dawley rats [2]): dose-dependently blocks the development of tolerance; also recorded: attenuated | effect of co-administration on induction of tolerance to the hypnotic effect of dexmedetomidine (Male Sprague-Dawley rats [2]; listed as NO2-Arginine): blocked | effect of acute administration on dexmedetomidine-induced sleep time (Male Sprague-Dawley rats [2]; NO2-arginine 15 min prior to dexmedetomidine 100 μg/kg i.p., drug naive rats (FIG. 5A)): dependently increases the dexmedetomidine-induced sleep time; also recorded: increased sleep time only at high doses | effect of acute administration on expression of tolerance to the hypnotic effect of dexmedetomidine (Male Sprague-Dawley rats [2]; low doses of NO2-arginine acute, after 7-day dexmedetomidine, challenge 100 μg/kg (FIG. 5B)): does not reverse the tolerance; also recorded: did not reverse its expression | effect of acute administration on expression of tolerance to the hypnotic effect of dexmedetomidine (Male Sprague-Dawley rats [2]; low doses of NO2-arginine acute, after 7-day dexmedetomidine, challenge 100 μg/kg (FIG. 5B), listed as NO2-Arginine): does not prevent the expression of tolerance | effect on dexmedetomidine-induced sleep time when given alone (Male Sprague-Dawley rats [2]; treatment with just NO2-arginine 1.25 μg/kg/hr (FIG. 5C, last column)): does not affect the dexmedetomidine-induced sleep time; also recorded: did not affect the dexmedetomidine sleep time | effect on dexmedetomidine-induced analgesia in control animals (Male Sprague-Dawley rats [3]; NO2-arginine 4 μg/kg/hr (FIG. 6C)): had no effect on dexmedetomidine-induced analgesia in control animals | effect on tail flick latency when administered alone (Male Sprague-Dawley rats [3]; NO2-arginine 4 μg/kg/hr alone (data not shown)): had no effect on tail flick latency | effect of co-administration on analgesic tolerance to dexmedetomidine (Male Sprague-Dawley rats [3]; NO2-arginine 4 μg/kg/hr with dexmedetomidine 10 μg/kg/hr for 14 days (FIG. 6C)): has no effect on analgesic tolerance; also recorded: had no effect on analgesic tolerance | effect of co-administration on analgesic tolerance to dexmedetomidine (Male Sprague-Dawley rats [3]; NO2-arginine 8 μg/kg/hr with dexmedetomidine 10 μg/kg/hr for 14 days (FIG. 6C)): also ineffective; also recorded: ineffective at reversing tolerance | effect of acute administration on expression of tolerance to the analgesic action of dexmedetomidine (Male Sprague-Dawley rats [3]; NO2-arginine 1 and 20 mg/kg i.p., dexmedetomidine 100 μg/kg i.p., tolerant rats (FIG. 6B)): does not reverse dexmedetomidine tolerance; also recorded: did not reverse the expression of tolerance | effect of acute administration on the analgesic action of dexmedetomidine (Male Sprague-Dawley rats [3]; NO2-arginine i.p. 15 min prior to dexmedetomidine 50 μg/kg i.p., naïve rats (FIG. 6A)): has no effect on the analgesic action of dexmedetomidine; also recorded: did not affect the analgesic action of dexmedetomidine

CNC1(c2ccccc2Cl)CCCCC1=O (stereo not shown) [ketamine]
effect on dexmedetomidine sedation when administered alone (Male Sprague-Dawley rats [2]; ketamine 400 μg/kg/hr alone (FIG. 3C)): without having an effect on dexmedetomidine sedation; also recorded: had no effect by itself | effect of co-administration on tolerance to the hypnotic (sedative) effect of dexmedetomidine (Male Sprague-Dawley rats [2]; ketamine 400 μg/kg/hr concurrently with dexmedetomidine, challenge 150 μg/kg i.p., pumps left in place (FIG. 3C)): reverses tolerance; also recorded: did reverse tolerance | effect of acute administration on established tolerance to the hypnotic effect of dexmedetomidine (Male Sprague-Dawley rats [2]; ketamine 10 or 20 mg/kg acute, tolerant rats (FIG. 3B)): does not block dexmedetomidine-induced tolerance; also recorded: could not reverse tolerance | effect of acute administration on dexmedetomidine-induced sleep time (Male Sprague-Dawley rats [2]; ketamine acute, dexmedetomidine 150 μg/kg i.p. (FIG. 3A)): has no effect on the sleep time | effect of acute administration on dexmedetomidine-induced sleep time (Male Sprague-Dawley rats [2]; ketamine acute, dexmedetomidine 150 μg/kg i.p. (FIG. 3A), listed as Ketamine): did not affect the sleep time

Cc1cccc([C@H](C)c2cnc[nH]2)c1C [dexmedetomidine]
dose of maximal efficacy of hypnotic action (biphasic dose response curve) (Male Sprague-Dawley rats [4]): around 300 μg/kg | hypnotic effect of dexmedetomidine (duration of loss of righting reflex), dose response (Male Sprague-Dawley rats [2]; rats chronically treated with dexmedetomidine 5 μg/kg/h for 7 days, even when large doses were given (FIG. 1A)): almost completely absent | hypnotic effect of dexmedetomidine (duration of loss of righting reflex), dose response (Male Sprague-Dawley rats [2]; sham treated animals, challenge doses (FIG. 1A)): dose dependently increased | maximal analgesic effect of dexmedetomidine (Male Sprague-Dawley rats [3]; [5]): reduced the maximal effect | shift of the analgesic dose response curve for dexmedetomidine (Male Sprague-Dawley rats [3]; [5]): about 2 fold
